# Reference: patent US11524962B2, “Substituted pyrrolo[2,3-d]pyrimidines as inhibitors of protein arginine methyl transferase 5 (PRMT5)” (PRELUDE THERAPEUTICS, INCORPORATED, priority 2017, dated 2022)
# Biological target: PRMT5/MEP50 complex (Homo sapiens (Human), UniProt O14744)
# Experiment: Flash plate assay
# Format: biochemical
# Settings: read-out: Flash Plate IC50
# Experimental: Flash plate assay. Compounds were solubilized, and 3-fold diluted in 100% DMSO. […] Standard reactions were performed in a total volume of 30 μl in assay buffer, with 300 nM histone H4 based AcH4-23 (Anaspec: AS-65002) as substrate. To this was added the PRMT5/MEP50 complex diluted to provide a final assay concentration of 2.5 nM and the compounds were allowed to preincubate for 20 minutes at 37° C. The reaction was initiated by adding S-[3H-methyl]-adenosyl-L-methionine (PerkinElmer: NET155001MC) to final concentration of 1 μM. Following a 30 minutes incubation at 37° C., the reaction was stopped by adding 25 μL of 8M Guanidine HCl. Prepare streptavidin YSI SPA beads (Perkinelmer: RPNQ0012) at 0.3 mg/mL in assay buffer. To each reaction, add 150 μL of SPA beads suspension, and incubated while shaking at room temperature for 30 minutes. The plate was centrifuged at 100×g for 30 second before reading in a scintillation counter. IC50 values were determined by fitting the data to the standard 4 parameters with Hill Slope using GraphPad Prism software. This procedure produced the Flash Plate data in Table 7.
# Chain of PRMT5/MEP50 complex (O14744 whole entry): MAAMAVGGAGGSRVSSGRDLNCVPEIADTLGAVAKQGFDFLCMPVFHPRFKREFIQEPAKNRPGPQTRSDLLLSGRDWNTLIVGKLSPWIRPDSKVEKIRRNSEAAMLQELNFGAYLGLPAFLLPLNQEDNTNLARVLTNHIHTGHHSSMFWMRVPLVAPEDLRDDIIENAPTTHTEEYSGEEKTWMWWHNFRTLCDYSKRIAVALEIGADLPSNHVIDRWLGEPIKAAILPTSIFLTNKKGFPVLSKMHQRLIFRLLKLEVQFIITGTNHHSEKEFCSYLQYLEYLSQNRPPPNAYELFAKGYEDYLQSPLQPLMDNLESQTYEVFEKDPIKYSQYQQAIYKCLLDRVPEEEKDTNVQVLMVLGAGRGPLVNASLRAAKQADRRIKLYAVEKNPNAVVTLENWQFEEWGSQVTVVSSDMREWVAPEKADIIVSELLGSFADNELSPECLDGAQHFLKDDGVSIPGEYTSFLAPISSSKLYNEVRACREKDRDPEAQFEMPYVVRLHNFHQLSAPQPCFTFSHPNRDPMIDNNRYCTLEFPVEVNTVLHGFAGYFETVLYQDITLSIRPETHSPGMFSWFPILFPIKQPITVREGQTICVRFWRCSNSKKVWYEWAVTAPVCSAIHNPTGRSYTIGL
# Chain of PRMT5/MEP50 complex (Q9BQA1 whole entry partner): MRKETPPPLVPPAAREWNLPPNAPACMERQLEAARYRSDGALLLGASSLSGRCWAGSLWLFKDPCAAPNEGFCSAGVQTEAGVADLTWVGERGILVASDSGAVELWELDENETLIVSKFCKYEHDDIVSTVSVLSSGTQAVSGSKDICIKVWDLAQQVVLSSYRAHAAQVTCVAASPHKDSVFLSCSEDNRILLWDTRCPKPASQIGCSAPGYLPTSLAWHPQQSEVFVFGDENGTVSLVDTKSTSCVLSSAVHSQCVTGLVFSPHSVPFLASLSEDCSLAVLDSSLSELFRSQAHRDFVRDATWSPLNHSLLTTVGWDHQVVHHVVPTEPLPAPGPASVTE
row,SMILES,IC50 [nM]
1,"Cc1ncnc2c1ccn2[C@@H]1O[C@H]([C@@H](O)c2ccc3c(c2)CC3)[C@@H](O)[C@H]1O [Example 47, (2R,3S,4R,5R)-2-((S)-bicyclo[4.2.0]octa-1,3,5-trien-3-yl(hydroxy)methyl)-5-(4-methyl-7H-pyrrolo[2,3-d]pyrimidin-7-yl)tetrahydrofuran-3,4-diol]",274
2,"CN(C)C(=O)Nc1ncnc2c1ccn2[C@@H]1O[C@H]([C@H](O)c2ccc3c(c2)CC3)[C@@H](O)[C@H]1O [Example 23, 3-(7-((2R,3R,4S,5R)-5-((R)-bicyclo[4.2.0]octa-1(6),2,4-trien-3-yl(hydroxy)methyl)-3,4-dihydroxytetrahydrofuran-2-yl)-7H-pyrrolo[2,3-d]pyrimidin-4-yl)-1,1-dimethylurea]",697
3,"C=C(C)c1ncnc2c1ccn2[C@@H]1O[C@H]([C@H](O)c2ccc3c(c2)CC3)[C@@H](O)[C@H]1O [Example 40, (2R,3S,4R,5R)-2-((R)-bicyclo[4.2.0]octa-1(6),2,4-trien-3-yl(hydroxy)methyl)-5-(4-(prop-1-en-2-yl)-7H-pyrrolo[2,3-d]pyrimidin-7-yl)tetrahydrofuran-3,4-diol]",1030
4,"C=Cc1ncnc2c1ccn2[C@@H]1O[C@H]([C@H](O)c2ccc3c(c2)CC3)[C@@H](O)[C@H]1O [Example 46, (2R,3S,4R,5R)-2-((R)-bicyclo[4.2.0]octa-1(6),2,4-trien-3-yl(hydroxy)methyl)-5-(4-vinyl-7H-pyrrolo[2,3-d]pyrimidin-7-yl)tetrahydrofuran-3,4-diol]",2060
5,"CC(C)c1ncnc2c1ccn2[C@@H]1O[C@H]([C@H](O)c2ccc3c(c2)CC3)[C@@H](O)[C@H]1O [Example 41, (2R,3S,4R,5R)-2-((R)-bicyclo[4.2.0]octa-1(6),2,4-trien-3-yl(hydroxy)methyl)-5-(4-isopropyl-7H-pyrrolo[2,3-d]pyrimidin-7-yl)tetrahydrofuran-3,4-diol]",230
6,"C[C@](O)(c1ccc2c(c1)CC2)[C@H]1O[C@@H](n2ccc3c(N)ncnc32)[C@H](O)[C@@H]1O [Example 39, (2R,3R,4S,5S)-2-(4-amino-7H-pyrrolo [2,3-d]pyrimidin-7-yl)-5-((S)-1-(bicyclo[4.2.0]octa-1(6),2,4-trien-3-yl)-1-hydroxyethyl)tetrahydrofuran-3,4-diol]",1240
7,"CCCCc1ncnc2c1ccn2[C@@H]1O[C@H]([C@H](O)c2ccc3c(c2)CC3)[C@@H](O)[C@H]1O [Example 42, (2R,3S,4R,5R)-2-((R)-bicyclo[4.2.0]octa-1,3,5-trien-3-yl(hydroxy)methyl)-5-(4-butyl-7H-pyrrolo[2,3-d]pyrimidin-7-yl)tetrahydrofuran-3,4-diol]",392

# Results, then the molecule that gave them:
row,IC50 [nM],SMILES
1,51,"O[C@@H]1[C@H](O)[C@@H]([C@H](O)c2ccc3c(c2)CC3)O[C@H]1n1ccc2c(CCl)ncnc21 [Example 51, (2R,3S,4R,5R)-2-((R)-bicyclo[4.2.0]octa-1(6),2,4-trien-3-yl(hydroxy)methyl)-5-(4-(chloromethyl)-7H-pyrrolo[2,3-d]pyrimidin-7-yl)tetrahydrofuran-3,4-diol]"
2,200,"O[C@@H]1[C@H](O)[C@@H]([C@H](O)c2ccc3c(c2)CC3)O[C@H]1n1ccc2c(CCOCc3ccccc3)ncnc21 [Example 55, (2R,3R,4S,5R)-2-(4-(2-(benzyloxy)ethyl)-7H-pyrrolo[2,3-d]pyrimidin-7-yl)-5-((R)-bicyclo[4.2.0]octa-1(6),2,4-trien-3-yl(hydroxy)methyl)tetrahydrofuran-3,4-diol]"
3,2520,"CCOCc1ncnc2c1ccn2[C@@H]1O[C@H]([C@H](O)c2ccc3c(c2)CC3)[C@@H](O)[C@H]1O [Example 50, (2R,3S,4R,5R)-2-((R)-bicyclo[4.2.0]octa-1(6),2,4-trien-3-yl(hydroxy)methyl)-5-(4-(ethoxymethyl)-7H-pyrrolo[2,3-d]pyrimidin-7-yl)tetrahydrofuran-3,4-diol]"
